Measured values published in US20200055871A1, “ACTIVATORS OF THE RETINOIC ACID INDUCIBLE GENE "RIG-I" PATHWAY AND METHODS OF USE THEREOF” (Kineta Immuno-Oncology LLC, priority 2018, published 2020).

Assays:
[1] = tested on: RIG-I deficient CT26 RIG-I−/− cells; assay: CXCL10 secretion by RIG-I deficient CT26 RIG-I−/− cells (ELISA); assay type: cell-based, murine; conditions: compound 5 to 20 μM, 24 h; note: key: −: about 0 pg/mL of CXCL10, or below the level of quantitation
In short: (§1)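 CT26 murine colon carcinoma cells, parental or CRISPR RIG-I−/−, seeded and grown 24 hr at 37° C, then treated with compounds at 10 μM, or at 5 or 20 μM for some. Secreted CXCL10 measured by ELISA in supernatants 24 h after treatment and reported in pg/mL bands.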

[2] = tested on: murine CT26 colon carcinoma cells; assay: RIG-I dependent CXCL10 secretion by CT26 cells (ELISA); assay type: cell-based; conditions: supernatant 24 h after stimulation
In short: as §1

[3] = tested on: IRF3-deficient THP1-Lucia™ ISG IRF3−/− cells; assay: THP1-Lucia ISG IRF3−/− reporter assay (IRF3-deficient control cells); assay type: cell-based, human; conditions: compound 5 to 20 μM, 18 h
Experimental: The promoter was comprised of five IFN-stimulated response elements (ISRE) fused to an ISG54 minimal promoter which is unresponsive to NF-kB or AP-1 pathways. […] The IRF3-deficient THP1-Lucia™ ISG IRF3−/−reporter cell line was generated by CRISPR technology from the parent THP1-Lucia™ ISG reporter cell line.
THP1-Lucia™ ISG cells and IRF3-deficient THP1-Lucia™ ISG IRF3−/−cells were differentiated with PMA (100 ng/ml) and stimulated with compounds at the indicated concentrations (5 to 20 μM), positive control, or not treated (background). Luciferase secretion was quantified using the QUANTI-Luc luciferase assay system (InvivoGen) 18 h after stimulation. Data are shown as fold increase luciferase activity over background in Table 7 and represent the IRF3-dependent ISG54 promoter activity by the THP1-Lucia™ ISG cells in response to compounds. […] The fold increase of compounds (10 μM, *20 μM, **5 μM) induced IRF3 dependent luciferase activity is indicated as follows: “≠” indicates less than 2.4 fold increase; “+” indicates a 2.4-4.9 fold increase; “++” indicates a 5-9.9 fold increase; “+++” indicates a 10-19 fold increase; “++++” indicates a 20-39 fold increase; “+++++” indicates greater than or equal to 40 fold increase.

[4] = tested on: IRF3 signaling pathway in THP1-Lucia™ ISG cells; assay: THP1-Lucia ISG reporter assay: induction of IRF3-dependent gene expression (secreted luciferase); assay type: cell-based, human; conditions: PMA-differentiated cells, 18 h after stimulation
In short: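 PMA-differentiated THP-1 reporter cells (ISRE/ISG54 promoter driving secreted luciferase), plus CRISPR IRF3−/− line, treated with compounds at 5–20 μM (mostly 10 μM). Luciferase measured 18 h later; values are fold increase over untreated background, binned from <2.4 to ≥40.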

[5] = tested on: murine CT26 colon carcinoma cells; assay: Compound-induced immunogenic cell death: apoptosis (Annexin V) and calreticulin translocation by flow cytometry; assay type: cell-based; conditions: 18 h after treatment, dose titration, FIG. 1
Experimental: To determine if the RIG-I agonist compounds induce immunogenic cell death in cancer cells, induction of apoptosis and the translocation of calreticulin (CRT) to the cell surface in murine CT26 colon carcinoma cells were evaluated. The translocation of CRT occurs as part of a specific RIG-I dependent danger-signaling system, and the presence of CRT on the cell membrane promotes tumor antigen uptake by the dendritic cells and leads to the induction of an antigen-specific T cell response
The induction of apoptosis and the CRT translocation were measured by flow cytometry. […] Cells were harvested 18 h after treatment and then prepared for flow cytometry using an Annexin V staining kit (Biolegend) for quantification of apoptosis, an anti-CRT antibody (Abgent) for calreticulin translocation, and the Live/Dead-Violet staining kit (Thermofisher) for cell viability. Induction of apoptosis and translocation of calreticulin (CRT) to cell surface by live cells was determined by tri-color flow cytometry using FITC-labeled Annexin V, Live/Dead-iolet (LDV), and APC-anti-CRT. Apoptotic cells were defined as Annexin V^+ and calreticulin translocation to cell surface was quantified by mean fluorescent intensity (MFI) of calreticulin^+ live cells (CRT^+ LDV^−). […]

| Molecule | CXCL10 secretion, CT26 RIG-I−/− [1] | CXCL10 secretion, CT26 ([2]; 10 μM compound) | fold increase of luciferase activity, THP1 ISG IRF3−/− [3] | fold increase of IRF3-dependent luciferase activity over background, THP1 ISG ([4]; 10 μM compound) | CXCL10 secretion, CT26 ([2]; 5 μM compound (**)) | induction of immunogenic cell death (apoptosis, calreticulin translocation to cell surface) [5] | fold increase of IRF3-dependent luciferase activity over background, THP1 ISG ([4]; 5 μM compound (**)) |
| --- | --- | --- | --- | --- | --- | --- | --- |
| O=C(Nc1cc2ccc3scnc3c2s1)c1cc2c(cc1OCCN1CCOCC1)OCO2 [Example 63, N-{5,12-dithia-3-azatricyclo[7.3.0.0^2,^6]dodeca-1,3,6,8,10-pentaen-11-yl}-6-[2-(morpholin-4-yl)ethoxy]-2H-1,3-benzodioxole-5-carboxamide] | − | ≠ (less than 100 pg/mL) | − (less than 0.5 fold above baseline was considered below the level of quantitation) | ≠ (less than 2.4 fold increase) |  |  |  |
| O=C(Nc1cc2ccc3scnc3c2s1)c1cc2ccsc2cc1OCCCCN1CCOCC1 [Example 66, N-{5,12-dithia-3-azatricyclo[7.3.0.0^2,^6]dodeca-1,3,6,8,10-pentaen-11-yl}-6-[4-(morpholin-4-yl)butoxy]-1-benzothiophene-5-carboxamide] | − | +++++ (greater than or equal to 1600 pg/ml) | − (less than 0.5 fold above baseline was considered below the level of quantitation) | + (a 2.4-4.9 fold increase) |  |  |  |
| O=C(Nc1nc2ccc3[nH]cnc3c2s1)c1cc2ccccc2cc1OCCN1CCOCC1 [Example 72, 3-[2-(morpholin-4-yl)ethoxy]-N-{3-thia-5,10,12-triazatricyclo[7.3.0.0^2,^6]dodeca-1,4,6,8,11-pentaen-4-yl}naphthalene-2-carboxamide] | − | +++ (400-799 pg/mL) | − (less than 0.5 fold above baseline was considered below the level of quantitation) | ++ (a 5-9.9 fold increase) |  |  |  |
| N-(3-bromophenyl)-11-methyl-3,10-dithia-5,12-diazatricyclo[7.3.0.0^2,^6]dodeca-1,4,6,8,11-pentaene-4-carboxamide [Example 10] | − | +++ (400-799 pg/mL) | − (less than 0.5 fold above baseline was considered below the level of quantitation) | + (a 2.4-4.9 fold increase) |  |  |  |
| N-[11-(methylsulfanyl)-3,10-dithia-5,12-diazatricyclo[7.3.0.0^2,^6]dodeca-1,4,6,8,11-pentaen-4-yl]-3-[4-(morpholin-4-yl)butoxy]naphthalene-2-carboxamide [Example 37] | − | ++++ (800 to 1599 pg/mL) | − (less than 0.5 fold above baseline was considered below the level of quantitation) | +++ (a 10-19 fold increase) |  |  |  |
| N-{5,12-dithia-3-azatricyclo[7.3.0.0^2,^6]dodeca-1,3,6,8,10-pentaen-11-yl}-3-[2-(morpholin-4-yl)ethoxy]-[1,1′-biphenyl]-4-carboxamide [Example 61] | − |  | − (less than 0.5 fold above baseline was considered below the level of quantitation) | ++++ (a 20-39 fold increase) | ++** (200-399 pg/mL) |  |  |
| N-{5,12-dithia-3-azatricyclo[7.3.0.0^2,^6]dodeca-1,3,6,8,10-pentaen-11-yl}-3-[4-(morpholin-4-yl)butoxy]-[1,1′-biphenyl]-4-carboxamide [Example 62] | − | ++++ (800 to 1599 pg/mL) | − (less than 0.5 fold above baseline was considered below the level of quantitation) | +++ (a 10-19 fold increase) |  | induction of immunogenic cell death |  |
| [N-(7-hydroxybenzo[1,2-d:3,4-d′]bis(thiazole)-2-yl)-3-(4-morpholinobutoxy)-2-naphthamide hydrochloride] [Example 44] | − | +++ (400-799 pg/mL) | − (less than 0.5 fold above baseline was considered below the level of quantitation) |  |  |  | ++** (a 5-9.9 fold increase) |
